In patent US20200129476A1, “PARP Inhibitor in Combination with a Glucocorticoid and/or Ascorbic Acid and/or a Protein Growth Factor for the Treatment of Impaired Wound Healing” (AKRIBES BIOMEDICAL GMBH, priority 2017, published 2020):
“Also recorded” adds a separate entry of the source.

System: primary human dermal fibroblasts (HDF)
Assay: Primary human dermal fibroblast (HDF) proliferation assay (2D), with or without wound exudate
Assay type: cell-based
Description: Primary human dermal fibroblasts (HDF) were purchased from CELLnTEC, Bern. They were routinely grown in Dulbecco's modified Eagle's medium (DMEM) containing 10% FCS, 2 mM glutamine, and 100 U/ml penicillin/100 μg/ml streptomycin. Media, antibiotics, and glutamine were bought from Lonza. The cells were used at passage 5-15. Cells were trypsinized and seeded at 5000 cells/well in 200 μl into the inner wells of 96-well plates. The outer wells were loaded with sterile water. The cells were allowed to adhere overnight and then incubated for 72 hours at 37° C. under the following conditions: graded compound concentrations or 20 ng/ml PDGF-BB (Tonbo Biosciences) in the absence or presence of different dilutions of sterile-filtered WE in medium. For control samples, 200p1 medium was added instead of specific stimuli. Alternatively, the cells were seeded into 384-well plates at 2500 cells/well directly together with test compounds or growth factors and WE or medium in a total volume of […].
At the end of the 72-hour incubation period, supernatants were removed for the determination of IL-1ß, and the cells were fixed with 4% paraformaldehyde (Morphisto) for 15 minutes at room temperature and washed 3 times with PBS. A control plate was fixed after the overnight adherence of the cells (day 1) to determine the starting cell number.
Total cellular protein was determined as a measure of cell number by staining the fixed cells with sulforhodamine B (SRB, Sigma). A 0.4% SRB solution in 1% acetic acid was added to the wells for 30 minutes. The wells were then washed with 1 acetic acid until the wash solution remained colorless. After drying, the dye was eluted with 10 mM Tris.HCl, pH8.5, and absorbance was measured either at 550 or 492 nm for lower and higher cell densities, respectively. The average absorbance of the sample representing the day 1 starting cell number (for 96-well plates) was subtracted from the absorbance values of the WE-treated cells.
All experiments were carried out in triplicate for each sample and concentration, and means±standard deviation (SD) were used for the evaluation of the experiment. Results are expressed as percentage of control values for unstimulated cells.
Low molecular weight compounds (see list in Table 1) were dissolved in DMSO (Bioreagent for cell culture, Sigma) at 10 mM or 100 mM and diluted at least 1:1000 in medium for cellular assays (final DMSO concentration ≤0.1%).
Cells were incubated with compounds for 72 hours in proliferation assays and up to 8 days for FDM assay (refreshed after 4 days). When compounds were tested for their effect on WE stimulation, the incubation of cells with compounds was started and ended simultaneously with WE-incubation.

[1] = presence of WE #78 (diabetic patient)
[2] = presence of wound exudate (WE) of patients, several or unspecified WE

NC(=O)c1cccc(N)c1 [3-AB, 3-Aminobenzamide]
fibroblast (HDF) proliferation (presence of WE #43): less active or inactive | fibroblast (HDF) proliferation [1]: less active or inactive

CN(C)CC(=O)Nc1ccc2[nH]c(=O)c3ccccc3c2c1.Cl [PJ-34, N-(6-Oxo-5,6-dihydro-phenanthridin-2-yl)-N,N-dimethylacetamide.HCl]
fibroblast (HDF) proliferation (presence of WE #43): less active or inactive | fibroblast (HDF) proliferation [1]: less active or inactive

Oc1cccc2c(O)nccc12 [1,5-IQD, 1,5-Isoquinolinediol]
fibroblast (HDF) proliferation (presence of WE #43): less active or inactive | fibroblast (HDF) proliferation [1]: less active or inactive

CC1(COc2ccc3c(c2)ncn3-c2ccc3cccc(N4CCC(N)CC4)c3n2)COC1 [crenolanib, Crenolanib]
effect on PDGF-enhanced proliferation (crenolanib 1 μM, PDGF 20 ng/ml, absence of WE (FIG. 19)): completely abrogated | fibroblast (HDF) proliferation [1]: without any effect

C[C@]12CCC(=O)C=C1CC[C@@H]1[C@@H]2[C@@H](O)C[C@@]2(C)[C@H]1CC[C@]2(O)C(=O)CO [hydrocortisone, Hydrocortisone]
fibroblast (HDF) proliferation [2]: Qualitatively identical results; also recorded: effect was confirmed

C[C@H]1C[C@H]2[C@@H]3CCC4=CC(=O)C=C[C@]4(C)[C@@]3(Cl)[C@@H](O)C[C@]2(C)[C@@]1(O)C(=O)CO [beclomethasone]
fibroblast (HDF) proliferation [2]: Qualitatively identical results

C[C@]12C=CC(=O)C=C1CC[C@@H]1[C@@H]2[C@@H](O)C[C@@]2(C)[C@H]1CC[C@]2(O)C(=O)CO [prednisolone, Prednisolone]
fibroblast (HDF) proliferation [2]: Qualitatively identical results; also recorded: effect was confirmed

C[C@@H]1C[C@H]2[C@@H]3C[C@H](F)C4=CC(=O)C(Cl)=C[C@]4(C)[C@@]3(F)[C@@H](O)C[C@]2(C)[C@@]1(O)C(=O)CO [halomethasone]
fibroblast (HDF) proliferation [2]: Qualitatively identical results

C[C@]12C=CC(=O)C=C1CC[C@@H]1[C@@H]2[C@@H](O)C[C@@]2(C)[C@H]1CC[C@]2(O)C(=O)CO [prelone]
fibroblast (HDF) proliferation [2]: Qualitatively identical results

B1: PDGF: Platelet-derived growth factor, protein growth factor (Tonbo Biosciences) (protein, UniProt P01127 82-190, looked up)
Platelet-derived growth …: SLGSLTIAEPAMIAECKTRTEVFEISRRLIDRTNANFLVWPPCVEVQRCSGCCNNRNVQCRPTQVQLRPVQVRKIEIVRKKPIFKKATVTLEDHLACKCETVAAARPVT
modifications: PDGF-BB homodimer
HDF proliferation, PDGF added to talazoparib (PDGF 20 ng/ml + talazoparib 0.3 μM, WE #78 (FIG. 19)): further enhanced this recovery | fibroblast (HDF) proliferation (absence of wound exudate (normal medium)): induces HDF proliferation; also recorded: enhances proliferation | fibroblast (HDF) proliferation [1]: has no effect; also recorded: inactive; also recorded: without any effect
